Data reported in patent US11111251B2, “Positive allosteric modulators of the muscarinic acetylcholine receptor M1” (Vanderbilt University, priority 2016, dated 2021).

Molecular target: T1, human mAChR M1 (Homo sapiens, UniProt P11229)
T1 sequence (P11229 1-460): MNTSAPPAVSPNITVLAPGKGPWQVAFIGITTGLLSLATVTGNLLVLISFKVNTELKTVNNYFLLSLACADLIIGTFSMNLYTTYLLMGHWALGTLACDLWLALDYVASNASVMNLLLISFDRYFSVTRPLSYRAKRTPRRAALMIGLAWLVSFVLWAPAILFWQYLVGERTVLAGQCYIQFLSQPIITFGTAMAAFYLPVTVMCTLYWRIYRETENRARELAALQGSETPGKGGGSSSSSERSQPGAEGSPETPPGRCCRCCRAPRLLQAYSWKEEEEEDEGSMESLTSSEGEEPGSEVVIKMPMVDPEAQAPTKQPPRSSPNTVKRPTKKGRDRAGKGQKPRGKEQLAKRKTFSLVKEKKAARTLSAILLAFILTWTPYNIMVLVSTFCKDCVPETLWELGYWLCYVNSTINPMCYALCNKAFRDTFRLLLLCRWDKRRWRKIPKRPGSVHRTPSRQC
Assay: mAChR M1 cell-based functional assay: calcium mobilization, positive allosteric modulator mode (increase in EC20 acetylcholine response)
Conditions: Table 2, human M1; for EC50: read-out: Human M1 EC50; for Emax: read-out: Human M1 Emax (%)
How it was run: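 Calcium-flux assay in CHO-K1 cells stably expressing human M1, loaded with Fluo-4 AM (50 min, 37 °C) and read at 1 Hz. Compound (11-point, 1:3 series) was added at 4 s, EC20 acetylcholine at 144 s and EC80 at 230 s. PAM activity is the concentration-dependent rise in the EC20 response, fitted with a four-parameter logistic.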

| SMILES | EC50 | Emax |
| --- | --- | --- |
| O=C1CC(NC(=O)c2cc(Cc3ccc(-n4cccn4)cc3)c3sccc3n2)CN1 (stereo not shown) [Compound 441, N-(5-oxopyrrolidin-3-yl)-7-[(4-pyrazol-1-ylphenyl)methyl]thieno[3,2-b]pyridine-5-carboxamide] | 1480 nM | 63.7% |
| CN1CCCC(NC(=O)c2cc(Cc3ccc(-n4cccn4)cc3)c3sccc3n2)C1 (stereo not shown) [Compound 442, N-(1-methyl-3-piperidyl)-7-[(4-pyrazol-1-ylphenyl)methyl]thieno[3,2-b]pyridine-5-carboxamide] | 1490 nM | 71.8% |
| CN1CCC(NC(=O)c2cc(Cc3ccc(-n4cccn4)cc3)c3sccc3n2)CC1 [Compound 443, N-(1-methyl-4-piperidyl)-7-[(4-pyrazol-1-ylphenyl)methyl]thieno[3,2-b]pyridine-5-carboxamide] | 1480 nM | 66.6% |
| CC(NC(=O)c1cc(Cc2ccc(-n3cccn3)cc2)c2sccc2n1)C1CCCO1 (stereo not shown) [Compound 446, 7-[(4-pyrazol-1-ylphenyl)methyl]-N-(1-tetrahydrofuran-2-ylethyl)thieno[3,2-b]pyridine-5-carboxamide] | 922 nM | 72.8% |
| O=C(NC1CCCOC1)c1cc(Cc2ccc(-n3cccn3)cc2)c2sccc2n1 (stereo not shown) [Compound 447, 7-[(4-pyrazol-1-ylphenyl)methyl]-N-tetrahydropyran-3-yl-thieno[3,2-b]pyridine-5-carboxamide] | 1100 nM | 73.9% |
| O=C(NCc1cc[nH]n1)c1cc(Cc2ccc(-n3cccn3)cc2)c2sccc2n1 [Compound 448, N-(1H-pyrazol-3-ylmethyl)-7-[(4-pyrazol-1-ylphenyl)methyl]thieno[3,2-b]pyridine-5-carboxamide] | 795 nM | 67.8% |
| Cn1ccc2nc(C(=O)NC3CC4(COC4)C3)cc(Cc3ccc(-n4cccn4)cc3)c21 [Compound 449, 1-Methyl-N-(2-oxaspiro[3.3]heptan-6-yl)-7-[(4-pyrazol-1-ylphenyl)methyl]pyrrolo[3,2-b]pyridine-5-carboxamide] | 157 nM | 73.1% |
| Cn1ccc2nc(C(=O)NC3CCOCC3)cc(Cc3ccc(-c4cscn4)cc3)c21 [Compound 451, 1-methyl-N-tetrahydropyran-4-yl-7-[(4-thiazol-4-ylphenyl)methyl]pyrrolo[3,2-b]pyridine-5-carboxamide] | 184 nM | 71.7% |
| Cn1ccc2nc(C(=O)NC3CC4(COC4)C3)cc(Cc3ccc(-c4cscn4)cc3)c21 [Compound 452, 1-methyl-N-(2-oxaspiro[3.3]heptan-6-yl)-7-[(4-thiazol-4-ylphenyl)methyl]pyrrolo[3,2-b]pyridine-5-carboxamide] | 339 nM | 71.9% |
| Cn1ccc2nc(C(=O)N[C@H]3CCOC[C@@H]3O)cc(Cc3ccc(-n4cccn4)cc3)c21 [Compound 453, N-[(3R,4S)-3-hydroxytetrahydropyran-4-yl]-1-methyl-7-[(4-pyrazol-1-ylphenyl)methyl]pyrrolo[3,2-b]pyridine-5-carboxamide] | 6.77 nM | 63.1% |
| Cn1ccc2nc(C(=O)N[C@H]3CCCC[C@@H]3O)cc(Cc3ccc(-n4cccn4)cc3)c21 [Compound 454, N-[(1S,2S)-2-hydroxycyclohexyl]-1-methyl-7-[(4-pyrazol-1-ylphenyl)methyl]pyrrolo[3,2-b]pyridine-5-carboxamide] | 13.9 nM | 69.3% |
| Cn1ccc2nc(C(=O)NC3CCOCC3)cc(Cc3ccc(-n4cccn4)cc3)c21 [Compound 455, 1-methyl-7-[(4-pyrazol-1-ylphenyl)methyl]-N-tetrahydropyran-4-yl-pyrrolo[3,2-b]pyridine-5-carboxamide] | 136 nM | 75.1% |
| Cn1ccc2nc(C(=O)N[C@H]3CCCCC[C@@H]3O)cc(Cc3ccc(-c4cscn4)cc3)c21 [Compound 456, N-[(1S,2S)-2-hydroxycycloheptyl]-1-methyl-7-[(4-thiazol-4-ylphenyl)methyl]pyrrolo[3,2-b]pyridine-5-carboxamide] | 129 nM | 67.9% |
| Cn1ccc2nc(C(=O)N[C@H]3CCCC[C@@H]3O)cc(Cc3ccc(-c4cscn4)cc3)c21 [Compound 457, N-[(1S,2S)-2-hydroxycyclohexyl]-1-methyl-7-[(4-thiazol-4-ylphenyl)methyl]pyrrolo[3,2-b]pyridine-5-carboxamide] | 34.8 nM | 64.8% |
| Cn1ccc2nc(C(=O)N[C@H]3CCC[C@@H]3O)cc(Cc3ccc(-c4cscn4)cc3)c21 [Compound 458, N-[(1S,2S)-2-hydroxycyclopentyl]-1-methyl-7-[(4-thiazol-4-ylphenyl)methyl]pyrrolo[3,2-b]pyridine-5-carboxamide] | 129 nM | 73.4% |
| Cn1ccc2nc(C(=O)N[C@H]3CC[C@@H]3O)cc(Cc3ccc(-c4cscn4)cc3)c21 [Compound 459, N-[(1S,2S)-2-hydroxycyclobutyl]-1-methyl-7-[(4-thiazol-4-ylphenyl)methyl]pyrrolo[3,2-b]pyridine-5-carboxamide] | 108 nM | 73.5% |
| C[C@@H]1CC(NC(=O)c2cc(Cc3ccc(-c4cscn4)cc3)c3c(ccn3C)n2)C[C@H](C)O1 (stereo partly drawn) [Compound 460, N-[(2S,6R)-2,6-dimethyltetrahydropyran-4-yl]-1-methyl-7-[(4-thiazol-4-ylphenyl)methyl]pyrrolo[3,2-b]pyridine-5-carboxamide] | 379 nM | 70.3% |
| Cn1ccc2nc(C(=O)N[C@@H]3CCCOC3)cc(Cc3ccc(-c4cscn4)cc3)c21 [Compound 463, 1-methyl-N-[(3R)-tetrahydropyran-3-yl]-7-[(4-thiazol-4-ylphenyl)methyl]pyrrolo[3,2-b]pyridine-5-carboxamide] | 1010 nM | 71.9% |

Other lines, results leading:

| EC50 | Emax | SMILES |
| --- | --- | --- |
| 1500 nM | 69.1% | O=C(NC1CCC1)c1cc(Cc2ccc(-n3cccn3)cc2)c2sccc2n1 [Compound 436, N-cyclobutyl-7-[(4-pyrazol-1-ylphenyl)methyl]thieno[3,2-b]pyridine-5-carboxamide] |
| 201 nM | 70% | O=C(NC1CCCC1=O)c1cc(Cc2ccc(-n3cccn3)cc2)c2sccc2n1 (stereo not shown) [Compound 437, N-(2-oxocyclopentyl)-7-[(4-pyrazol-1-ylphenyl)methyl]thieno[3,2-b]pyridine-5-carboxamide] |
| 2210 nM | 63.1% | CN1CC(NC(=O)c2cc(Cc3ccc(-n4cccn4)cc3)c3sccc3n2)CC1=O (stereo not shown) [Compound 438, N-(1-methyl-5-oxo-pyrrolidin-3-yl)-7-[(4-pyrazol-1-ylphenyl)methyl]thieno[3,2-b]pyridine-5-carboxamide] |
| 400 nM | 68.1% | O=C(NC1CCS(=O)(=O)C1)c1cc(Cc2ccc(-n3cccn3)cc2)c2sccc2n1 (stereo not shown) [Compound 439, N-(1,1-dioxothiolan-3-yl)-7-[(4-pyrazol-1-ylphenyl)methyl]thieno[3,2-b]pyridine-5-carboxamide] |
| 1970 nM | 69.3% | O=C(NC1CCOC1)c1cc(Cc2ccc(-n3cccn3)cc2)c2sccc2n1 (stereo not shown) [Compound 440, 7-[(4-pyrazol-1-ylphenyl)methyl]-N-tetrahydrofuran-3-yl-thieno[3,2-b]pyridine-5-carboxamide] |
| 263 nM | 71% | CC1COCCC1NC(=O)c1cc(Cc2ccc(-n3cccn3)cc2)c2sccc2n1 (stereo not shown) [Compound 444, N-(3-methyltetrahydropyran-4-yl)-7-[(4-pyrazol-1-ylphenyl)methyl]thieno[3,2-b]pyridine-5-carboxamide] |
| > 10000 nM | 50.7% | O=C(c1cc(Cc2ccc(-n3cccn3)cc2)c2sccc2n1)N1CC2CC1CO2 (stereo not shown) [Compound 445, 2-oxa-5-azabicyclo[2.2.1]heptan-5-yl-[7-[(4-pyrazol-1-ylphenyl)methyl]thieno[3,2-b]pyridin-5-yl]methanone] |
| 6.89 nM | 71% | Cn1ccc2nc(C(=O)N[C@H]3CCOC[C@@H]3O)cc(Cc3ccc(-c4cscn4)cc3)c21 [Compound 450, N-[(3R,4S)-3-hydroxytetrahydropyran-4-yl]-1-methyl-7-[(4-thiazol-4-ylphenyl)methyl]pyrrolo[3,2-b]pyridine-5-carboxamide] |
| 410 nM | 70.8% | Cn1ccc2nc(C(=O)NC3CCOC(C)(C)C3)cc(Cc3ccc(-c4cscn4)cc3)c21 (stereo not shown) [Compound 461, N-(2,2-dimethyltetrahydropyran-4-yl)-1-methyl-7-[(4-thiazol-4-ylphenyl)methyl]pyrrolo[3,2-b]pyridine-5-carboxamide] |
| 2050 nM | 67.9% | Cn1ccc2nc(C(=O)N[C@H]3CCCOC3)cc(Cc3ccc(-c4cscn4)cc3)c21 [Compound 462, 1-methyl-N-[(3S)-tetrahydropyran-3-yl]-7-[(4-thiazol-4-ylphenyl)methyl]pyrrolo[3,2-b]pyridine-5-carboxamide] |
| 1870 nM | 71.2% | Cn1ccc2nc(C(=O)N[C@H]3CCOC3)cc(Cc3ccc(-c4cscn4)cc3)c21 [Compound 464, 1-methyl-N-[(3S)-tetrahydrofuran-3-yl]-7-[(4-thiazol-4-ylphenyl)methyl]pyrrolo[3,2-b]pyridine-5-carboxamide] |
